Experimental data from patent US6335357B1, “Pyrazole derivatives, process for preparing the same, intermediates, and pest control agent containing the same as active ingredient” (Mitsubishi Chemical Corporation, priority 1997, dated 2002).

What was measured:
Format in all cases: in vivo
Myzus persicae [1] = assay: Insecticidal effect on larvae of Myzus persicae (Test Example 5); details: 500 ppm; Japanese radish leaves dipped in emulsion; 4th day after treatment at 25° C.
Description: Insecticidal Effect on Larvae of Myzus persicae:
Water was put in a screw bottle (volume: 10 ml), and a leafstalk of Japanese radish was placed therein and inoculated with 5 to 6 imagoes of Myzus persicae per leave. After the inoculation, the bottle was put in a glass cylinder (diameter: 3.5 cm; height: 15 cm) with a mesh cover, and the insects were let to proliferate in a thermostat kept at 25° C. for 3 days. […] The cylinder was maintained in the thermostat at 25° C., and the number of the insects on the leaves was counted on the 4th day after the treatment to obtain a death rate (%).

Nilaparvata lugens = assay: Insecticidal effect on larvae of Nilaparvata lugens (Test Example 1); details: 500 ppm; 4th instar larvae on rice seedling, sprayed emulsion; after 5 days at 25° C.
Description: Insecticidal Effect on Larvae of Nilaparvata lugens:
A rice seedling was planted in a glass cylinder (inner diameter: 3 cm; length: 17 cm), and five 4th instar larvae of Nilaparvata lugens were set free therein. An agricultural and horticultural insecticide was prepared in accordance with Formulation Example 3 and diluted with water, and 0.5 ml of the resulting emulsion was sprayed in the cylinder by means of a spray tower (manufactured by Mizuho Rika) (duplicates at a concentration). The cylinder was kept in a thermostat at 25° C., and the mortality and agony of the larvae were examined after 5 days from the treatment to obtain a death rate (%) taking an agonizing insect as a ½ dead insect.

Spodoptera litura [2] = assay: Insecticidal effect on larvae of Spodoptera litura (Test Example 3); details: 500 ppm; 3-instar larvae, cabbage leaf disc soaked in suspension; after 5 days at 25° C.
Description: Insecticidal Effect on Larvae of Spodoptera litura:
(§1) A disc (6 cm in diameter) cut out of a cabbage leaf was soaked in an aqueous suspension of an agricultural and horticultural insecticide prepared in accordance with Formulation Example 1 for 1 minute, air-dried, and placed in a plastic cup (inner diameter: 7 cm). Five 3-instar larvae of Spodoptera litura were set free in the cup (duplicates at a concentation). The cup was kept in a thermostat at 25° C., and the death and agony of the larvae were examined after 5 days from the treatment to obtain a death rate (%) taking an agonizing insect as a ½ dead insect. The results obtained are show in Table 4 (the compound numbers in the Table below correspond to the numbers in Table 1).

Plutella xylostella [3] = assay: Insecticidal effect on larvae of Plutella xylostella (Test Example 2); details: 500 ppm; 3-instar larvae, cabbage leaf disc soaked in suspension; after 4 days at 25° C.
Description: Insecticideal Effect on Larvae of Plutella xylostella:
as §1, with “of the” for “of an”, “of Plutella xylostella” for “of Spodoptera litura”, “a concentration).” for “a concentation).”, “after 4” for “after 5”, “are shown” for “are show”, “Table 3” for “Table 4”

Plutella xylostella [4] = assay: Low concentration test, Plutella xylostella (Test Example 6)
From the text: Effects on the larvae of Plutella xylostella of compound Nos. 2 and 57 of the invention and, for comparison, the compound I described in an unexamined published Japanese patent application 63-316771 and the compounds II and III described in an unexamined published Japanese patent application 5-148240 were examined at varied concentrations. The results obtained are shown in Table 7 (the compound numbers in the Table correspond to the numbers in Table 1).

Myzus persicae [5] = assay: Low concentration test, Myzus persicae (Test Example 6)
Spodoptera litura [6] = assay: Low concentration test, Spodoptera litura (Test Example 6)
Callosobruchus chinensis = assay: Insecticidal effect on imagoes of Callosobruchus chinensis (Test Example 4); details: 500 ppm, sprayed emulsion, after 4 days at 25° C.
Description: Insecticidal Effect on Imagoes of Callosobruchus chinensis:
Two adzuki beans were put in a glass cylinder (inner diameter: 3 cm; length: 15 cm), and 10 imagoes of Callosobruchus chinensis were set free therein. An agricultural and horticultural insecticide was prepared in accordance with Formulation Example 3 and diluted with water, and 0.3 ml of the resulting emulsion was sprayed in the glass cylinder by means of a spray tower (manufactured by Mizuho Rica) (duplicates at a concentration). The cylinder was kept in a thermostat at 25° C., and the mortality and agony of the larvea were examined after 4 days from the treatment to obtain a death rate (%) taking an agonizing insect as a ½ dead insect.

CD-1 male mice = assay: Single oral dose administration test in mice (acute toxicity, Test Example 7); details: 300 mg/kg single oral dose in 0.5% CMC-Na, after 7 days
Description: Single Oral Dose Administration Test in Mice:
Acute toxicity (p.o.) compound No. 1 in mice was examined as follows. For comparison, compound IV disclosed in an unexamined published Japanese patent application 63-316771 was tested similarly.
Each test compound (300 mg) was suspended in 10 ml of a 0.5% CMC-Na aqueous solution. Five 6-week-old CD-1 male mice (available from Charles River) per group were forced to take an oral dose of 10 ml/kg of the suspension. The number of dead mice was counted after 7 days from the administration to obtain a death rate.

Row | Structure (SMILES) | Death Rate (%) (Nilaparvata lugens) | Death Rate (%) (Spodoptera litura [2]) | Death Rate (%) (Plutella xylostella [3]) | Death Rate (%) Plutella xylostella (Plutella xylostella [4]; 0.2 ppm) [%] | Death Rate (%) Plutella xylostella (Plutella xylostella [4]; 0.8 ppm) [%] | Death Rate (%) Plutella xylostella (Plutella xylostella [4]; 3.1 ppm) [%] | Death Rate (%) Plutella xylostella (Plutella xylostella [4]; 12.5 ppm) [%] | Death Rate (%) Plutella xylostella (Plutella xylostella [4]; 50 ppm) [%] | Death Rate (%) Plutella xylostella (Plutella xylostella [4]; 200 ppm) [%] | Death Rate (%) Myzus persicae (Myzus persicae [5]; 200 ppm) [%] | Death Rate (%) Spodoptera litura (Spodoptera litura [6]; 12.5 ppm) [%] | Death Rate (%) Spodoptera litura (Spodoptera litura [6]; 50 ppm) [%] | Death Rate (%) Spodoptera litura (Spodoptera litura [6]; 200 ppm) [%] | Death Rate (%) (Callosobruchus chinensis) | also measured
1 | N#Cc1nn(-c2c(Cl)cc(C(F)(F)F)cc2Cl)c(NCc2ccncc2)c1SC(F)(F)F [Compound 1, 1-(2,6-Dichloro-4-trifluoromethylphenyl)-3-cyano-4-trifluoromethylsulfenyl-5-(4-pyridylmethylamino)pyrazole] | 100 | 100 | 100 | 100 | 100 | 100 | 100 | 100 | 100 | 100 | 100 | 100 | 100 | 100 | Death Rate (%) (Myzus persicae [1]): 100%; Death Rate (%) Plutella xylostella (Plutella xylostella [4]; 0.05 ppm): 95%; Death Rate (%) Myzus persicae (Myzus persicae [5]; 12.5 ppm): 98%; Death Rate (%) Myzus persicae (Myzus persicae [5]; 50 ppm): 100%; Death Rate (%) Spodoptera litura (Spodoptera litura [6]; 3.1 ppm): 95%
2 | COc1cc(CNc2c([S+]([O-])C(F)(F)F)c(C#N)nn2-c2c(Cl)cc(C(F)(F)F)cc2Cl)ccc1O (stereo not shown) [Compound 64] | 100 |  | 100 |  |  |  |  |  |  |  |  |  |  | 100 | 
3 | N#Cc1nn(-c2c(Cl)cc(C(F)(F)F)cc2Cl)c(NCc2ccccc2Cl)c1SC(F)(F)F [Compound 18] | 100 | 100 | 100 |  |  |  |  |  |  |  |  |  |  | 100 | 
4 | Cn1cccc1CNc1c(SC(F)(F)F)c(C#N)nn1-c1c(Cl)cc(C(F)(F)F)cc1Cl [Compound 57] | 100 | 100 | 100 | 40 | 100 | 100 | 100 | 100 | 100 | 100 | 70 | 100 | 100 | 100 | Death Rate (%) (Myzus persicae [1]): 100%; Death Rate (%) Myzus persicae (Myzus persicae [5]; 12.5 ppm): 80%; Death Rate (%) Myzus persicae (Myzus persicae [5]; 50 ppm): 90%
5 | N#Cc1nn(-c2c(Cl)cc(C(F)(F)F)cc2Cl)c(N)c1[S+]([O-])C(F)(F)F (stereo not shown) [IV, reference compound] |  |  |  |  |  |  |  |  |  |  |  |  |  |  | Death Rate (%) (CD-1 male mice): 80%
6 | CC(C)(C)c1ccc(CNc2c(SC(F)(F)F)c(C#N)nn2-c2c(Cl)cc(C(F)(F)F)cc2Cl)cc1 [Compound 5] | 100 |  |  |  |  |  |  |  |  |  |  |  |  | 100 | 
7 | N#Cc1nn(-c2c(Cl)cc(C(F)(F)F)cc2Cl)c(N=Cc2ccncc2)c1SC(F)(F)F [II] |  |  |  | 100 | 100 | 100 | 100 | 100 | 100 | 0 | 95 | 200 | 100 |  | Death Rate (%) Plutella xylostella (Plutella xylostella [4]; 0.05 ppm): 80%; Death Rate (%) Spodoptera litura (Spodoptera litura [6]; 3.1 ppm): 60%
8 | Cn1cccc1C=Nc1c(SC(F)(F)F)c(C#N)nn1-c1c(Cl)cc(C(F)(F)F)cc1Cl [III] |  |  |  |  | 20 | 75 | 100 | 100 | 100 | 0 | 65 | 95 | 100 |  | 
9 | COc1cc(CNc2c(SC(F)(F)F)c(C#N)nn2-c2c(Cl)cc(C(F)(F)F)cc2Cl)ccc1O [Compound 2, 1-(2,6-Dichloro-4-trifluoromethylphenyl)-3-cyano-4-trifluoromethylsulfenyl-5-[(3-methoxy-4-hydroxyphenyl)methylamino]pyrazole] | 100 | 100 | 100 |  |  |  |  |  |  |  |  |  |  | 100 | Death Rate (%) (Myzus persicae [1]): 100%; Death Rate (%) (CD-1 male mice): 0%
10 | CC(C)Oc1ccc(CNc2c(SC(F)(F)F)c(C#N)nn2-c2c(Cl)cc(C(F)(F)F)cc2Cl)cc1 [Compound 8] | 100 |  | 100 |  |  |  |  |  |  |  |  |  |  | 100 | 
11 | COc1ccc(CNc2c(SC(F)(F)F)c(C#N)nn2-c2c(Cl)cc(C(F)(F)F)cc2Cl)cc1 [Compound 7] | 100 | 100 | 100 |  |  |  |  |  |  |  |  |  |  | 100 | 
12 | CCCNc1c(SC(F)(F)F)c(C#N)nn1-c1c(Cl)cc(C(F)(F)F)cc1Cl [I] |  |  |  | 20 | 85 | 100 | 100 | 100 | 100 | 50 | 50 | 100 | 100 |  | Death Rate (%) Myzus persicae (Myzus persicae [5]; 3.1 ppm): 0%; Death Rate (%) Myzus persicae (Myzus persicae [5]; 12.5 ppm): 50%; Death Rate (%) Myzus persicae (Myzus persicae [5]; 50 ppm): 60%; Death Rate (%) Spodoptera litura (Spodoptera litura [6]; 3.1 ppm): 0%
